The NIST ThermoML archive (doi:10.1016/j.jct.2013.01.008)
± gives the expanded uncertainty stated by the source.

Experiments:
[1] = wn = mass fraction of the nth substance listed; settings: 101 kPa, Liquid; for mass density: Pycnometric method; for viscosity: Capillary tube (Ostwald / Ubbelohde) method
[2] = 101 kPa, Liquid; for viscosity: Capillary tube (Ostwald / Ubbelohde) method
[3] = mn = molality of the nth substance listed, in mol/kg; settings: 101 kPa, Liquid, m2 = 0; for viscosity: Capillary tube (Ostwald / Ubbelohde) method

O=C[C@H](O)[C@@H](O)[C@H](O)[C@H](O)CO [D-glucose] + O
[1]
Settings	mass density, w1 = 0.05 [kg/m3]	mass density, w1 = 0.1 [kg/m3]	mass density, w1 = 0.15 [kg/m3]	mass density, w1 = 0.2 [kg/m3]	viscosity, w1 = 0.05 [mPa·s]	viscosity, w1 = 0.1 [mPa·s]	viscosity, w1 = 0.15 [mPa·s]	viscosity, w1 = 0.2 [mPa·s]
293.15 K	1016.28 ± 0.33	1034.79 ± 0.34	1053.29 ± 0.37	1072.41 ± 0.4	–	–	–	–
298.15 K	1014.69 ± 0.34	1033.15 ± 0.35	1051.61 ± 0.36	1070.31 ± 0.41	0.9767 ± 0.0091	1.12 ± 0.011	1.316 ± 0.013	1.67 ± 0.015
303.15 K	1013.08 ± 0.35	1031.5 ± 0.36	1049.92 ± 0.36	1068.17 ± 0.42	0.8605 ± 0.0081	0.9907 ± 0.0092	1.147 ± 0.011	1.491 ± 0.013
308.15 K	1011.47 ± 0.36	1029.84 ± 0.37	1048.37 ± 0.37	1065.97 ± 0.43	0.7697 ± 0.0072	0.8844 ± 0.0082	1.018 ± 0.0096	1.345 ± 0.012
313.15 K	1009.85 ± 0.37	1028.17 ± 0.38	1046.62 ± 0.39	1063.76 ± 0.44	0.6945 ± 0.0065	0.7901 ± 0.0073	0.8925 ± 0.0084	1.21 ± 0.011
318.15 K	–	1026.48 ± 0.38	1044.93 ± 0.45	1061.52 ± 0.45	0.6334 ± 0.006	0.7223 ± 0.0066	0.8097 ± 0.0067	1.112 ± 0.0097

O [water]
[2]
Settings	viscosity [mPa·s]
298.15 K	0.8903 ± 0.0081
303.15 K	0.7973 ± 0.0074
308.15 K	0.719 ± 0.0067
313.15 K	0.6526 ± 0.0061
318.15 K	0.5972 ± 0.0056

Settings	mass density [kg/m3]
[2], 308.15 K, Pycnometric method	994.07 ± 0.36

O [water] + C[C@@H](O)[C@H](N)C(=O)O
[3]
Settings	viscosity [mPa·s]
298.15 K	0.8903 ± 0.0081
303.15 K	0.7973 ± 0.0074
308.15 K	0.719 ± 0.0067
313.15 K	0.6526 ± 0.0061
318.15 K	0.5972 ± 0.0056

Settings	mass density [kg/m3]
[3], 308.15 K, Pycnometric method	994.07 ± 0.36
